Data: the supplement of paper PMC11208160

Test: recombinant UMI read abundance after kanamycin selection (control-corrected) (log10(CPM+1)); higher = more efficient recombination; extreme values may be limits of the assay; sequences stand for … in AGTGCAGAGAAAATCGGCCAGTTTTCTCTGCCTGCAGTCCGCATGCCGTGGGACCCCTTGGGTTCTAACCTGTTGCCTAGATTTATGCAGCGGACTGCCTTTCTCCCAAAGTGATAAACCGG…AGGTTGGTTTCACT; site = the 11-nt donor
Outline: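 Sequencing read counts were converted to CPM, averaged over two replicates and scaled by control-derived factors. Results are given as log10(CPM+1). The reads covered the donor–target junction of recombinant UMIs from a pooled Escherichia coli screen of donor and donor-binding-loop pairs for the IS621 bridge recombinase.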
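Further: IS621 bridge recombinase in Escherichia coli cells against a fixed T5 target plasmid.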

Row | Sequence | recombinant UMI read abundance (log10)
1 | CGGTCGACATGGACCGGTTTTCCCGGTAATCCGTATTTGGA (site CGGTCGACTTC) | 0.112
2 | CGGTGCGCATGGACCGGTTTTCCCGGTAATCCGTATTTGCC (site CGGTGCGCTGG) | 1.48
3 | CGGTGTCCATGGACCGGTTTTCCCGGTAATCCGTATTTGTT (site CGGAATCCTAA) | 0.0121
4 | CGGTGTCCATGGACCGGTTTTCCCGGTAATCCGTATTTGTT (site CGGTGTCCTAA) | 0.0166
5 | CGGTTAGCATGGACCGGTTTTCCCGGTAATCCGTATTTGTG (site CAGTTAGCTCA) | 0.694
6 | CGGTTAGCATGGACCGGTTTTCCCGGTAATCCGTATTTGTG (site CCGTTAGCTCA) | 0
7 | CGGTTAGCATGGACCGGTTTTCCCGGTAATCCGTATTTGTG (site CGGTTAGCTCA) | 1.7
8 | CGGTTAGCATGGACCGGTTTTCCCGGTAATCCGTATTTGTG (site CTGTTAGCTCA) | 0.256
9 | CGTACAACATGGACCGGTTTTCCCGGTAATCCGTATTTGGT (site CGTACAACTAC) | 1.09
10 | CGTAGCGCATGGACCGGTTTTCCCGGTAATCCGTATTTGTT (site CGTAGCGCTAA) | 1.05
11 | CGTCAGACATGGACCGGTTTTCCCGGTAATCCGTATTTGAG (site CGTAAGACTCT) | 0.182
12 | CGTCAGACATGGACCGGTTTTCCCGGTAATCCGTATTTGAG (site CGTCAGACTCT) | 1.16
13 | CGTCAGACATGGACCGGTTTTCCCGGTAATCCGTATTTGAG (site CGTGAGACTCT) | 0.016
14 | CGTCAGACATGGACCGGTTTTCCCGGTAATCCGTATTTGAG (site CGTTAGACTCT) | 0.0174
15 | CGTCGACCATGGACCGGTTTTCCCGGTAATCCGTATTTGAT (site CGTCGACCTAT) | 0.0862
16 | CGTCGTACATGGACCGGTTTTCCCGGTAATCCGTATTTGCT (site CGACGTACTAG) | 0.689
17 | CGTCGTACATGGACCGGTTTTCCCGGTAATCCGTATTTGCT (site CGCCGTACTAG) | 1.22
18 | CGTCGTACATGGACCGGTTTTCCCGGTAATCCGTATTTGCT (site CGGCGTACTAG) | 0.794
19 | CGTCGTACATGGACCGGTTTTCCCGGTAATCCGTATTTGCT (site CGTCGTACTAG) | 1.76
20 | CGTCTCCCATGGACCGGTTTTCCCGGTAATCCGTATTTGAG (site CGTCTCCCTCT) | 0.0129
21 | CGTGAACCATGGACCGGTTTTCCCGGTAATCCGTATTTGAT (site CGAGAACCTAT) | 0.0201
22 | CGTGAACCATGGACCGGTTTTCCCGGTAATCCGTATTTGAT (site CGCGAACCTAT) | 0
23 | CGTGAACCATGGACCGGTTTTCCCGGTAATCCGTATTTGAT (site CGGGAACCTAT) | 0
24 | CGTGAACCATGGACCGGTTTTCCCGGTAATCCGTATTTGAT (site CGTGAACCTAT) | 0.0133
25 | CGTGACTCATGGACCGGTTTTCCCGGTAATCCGTATTTGCG (site CGTGACTCTCG) | 2.74
26 | CGTGACTCATGGACCGGTTTTCCCGGTAATCCGTATTTGTA (site CGTGACTCTTA) | 3.02

Row | Sequence | recombinant UMI read abundance (log10)
27 | CGTGAGTCATGGACCGGTTTTCCCGGTAATCCGTATTTGCC (site CGAGAGTCTGG) | 1.79
28 | CGTGAGTCATGGACCGGTTTTCCCGGTAATCCGTATTTGCC (site CGCGAGTCTGG) | 0
29 | CGTGAGTCATGGACCGGTTTTCCCGGTAATCCGTATTTGCC (site CGGGAGTCTGG) | 0.694
30 | CGTGAGTCATGGACCGGTTTTCCCGGTAATCCGTATTTGCC (site CGTGAGTCTGG) | 1.97
31 | CGTGAGTCATGGACCGGTTTTCCCGGTAATCCGTATTTGCG (site CGTGAGTCTCG) | 2.58
32 | CGTGCGGCATGGACCGGTTTTCCCGGTAATCCGTATTTGGA (site CGTGCGGCTTC) | 0.167
33 | CGTGCGTCATGGACCGGTTTTCCCGGTAATCCGTATTTGTA (site CGTGCGTCTTA) | 2.34
34 | CGTGGAACATGGACCGGTTTTCCCGGTAATCCGTATTTGGT (site CGTGGAACTAA) | 0.427
35 | CGTGGAACATGGACCGGTTTTCCCGGTAATCCGTATTTGGT (site CGTGGAACTAC) | 1.33
36 | CGTGGAACATGGACCGGTTTTCCCGGTAATCCGTATTTGGT (site CGTGGAACTAG) | 0
37 | CGTGGAACATGGACCGGTTTTCCCGGTAATCCGTATTTGGT (site CGTGGAACTAT) | 1.26
38 | CGTGGCACATGGACCGGTTTTCCCGGTAATCCGTATTTGTT (site CGTGGAACTAA) | 0.00865
39 | CGTGGCACATGGACCGGTTTTCCCGGTAATCCGTATTTGTT (site CGTGGCACTAA) | 0.862
40 | CGTGGCACATGGACCGGTTTTCCCGGTAATCCGTATTTGTT (site CGTGGGACTAA) | 0.00775
41 | CGTGGCACATGGACCGGTTTTCCCGGTAATCCGTATTTGTT (site CGTGGTACTAA) | 0.0209
42 | CGTGTAACATGGACCGGTTTTCCCGGTAATCCGTATTTGTT (site CGTGAAACTAA) | 0.00395
43 | CGTGTAACATGGACCGGTTTTCCCGGTAATCCGTATTTGTT (site CGTGCAACTAA) | 0.015
44 | CGTGTAACATGGACCGGTTTTCCCGGTAATCCGTATTTGTT (site CGTGGAACTAA) | 0.0109
45 | CGTGTAACATGGACCGGTTTTCCCGGTAATCCGTATTTGTT (site CGTGTAACTAA) | 0.811
46 | CGTTAAGCATGGACCGGTTTTCCCGGTAATCCGTATTTGGC (site CGTTAAGCTGC) | 1.73
47 | CGTTACCCATGGACCGGTTTTCCCGGTAATCCGTATTTGCG (site CGTTACCCTCG) | 0.477
48 | CGTTAGACATGGACCGGTTTTCCCGGTAATCCGTATTTGAT (site CGTTAGACTAT) | 1.58
49 | CGTTAGACATGGACCGGTTTTCCCGGTAATCCGTATTTGAT (site CGTTAGACTCT) | 0.00897
50 | CGTTAGACATGGACCGGTTTTCCCGGTAATCCGTATTTGAT (site CGTTAGACTGT) | 0
51 | CGTTAGACATGGACCGGTTTTCCCGGTAATCCGTATTTGAT (site CGTTAGACTTT) | 0.0167
52 | CGTTATCCATGGACCGGTTTTCCCGGTAATCCGTATTTGCG (site CGTTATCCTCG) | 0.766
